Assay results: patent publication US20130136714A1, “FUNCTIONALIZED POLYMER NANOPARTICLES AND THE PHARMACEUTICAL USE THEREOF” (KAOHSIUNG MEDICAL UNIVERSITY, priority 2011, published 2013)
In brackets after ≈: the same amount, converted by molar mass.

Tests used:
[1] = biological target: folic acid receptors (FAR); settings: read-out: dissociation constant (kd); cited from earlier work
[2] = test system: KB cells; assay: cytotoxic test (IC50) for the EPI-loaded micelles (MTT); type: cell-based; settings: Homo sapiens
Method: The results of the cytotoxic test for the drug-loaded micelle are presented as the half maximal inhibitory concentration, i.e. IC50, which is used to examine the biological or biochemical inhibitory effect of a compound. Thus, the IC50 represents the concentration of the drug-loaded micelle required to inhibit the growth of a half of the cancer cells.
5×10^3 cells/well KB cells are incubated in 100 μL of RPMI 1640 medium, and transferred into the 96-well plate for incubating 24 hrs.
Epirubicin.HCl and drug-loaded micelle is prepared at 20 μg/mL, in RPMI 1640 medium. After a serial of dilution, 100 μL/well of each concentration (20, 10, 5, 2.5, 1.25, 1 and 0.5 μg/mL) is added into the cultured plate for 24 hrs incubation.
After 24 hrs incubation, the medium containing the drug and the micelle is removed, and the plate is washed with 100 μL/well PBS buffer at pH=7.4 and further incubated in 100 μL/well fresh medium for 24 and 48 hrs.
The plate is added with 50 μL/well (2 mg/mL) MTT and placed in the incubator for 3 hrs. […] Then, the cell viability is calculated using the ELISA reader.

[3] = test system: KB cell line; assay: intracellular delivery by confocal laser scanning microscope; type: cell-based, human; settings: 0.625 μg/mL, cells incubated for 1 h
Method: Human oral cancer cell line (KB cell line) is used to investigate the cell viability of the carrier and the drug-loaded micelle, and the expression of the drug-loaded micelle through the endocytosis is observed using a confocal laser scanning microscope (CLSM). The 4′,6-diamidino-2-phenylindole (DAPI) and the lysosomal probe (Lyso-Traker) are used for cell core staining and the lysosome staining, respectively. The drug at the concentration of 0.625 μg/mL is added according to the cell viability for the drug-loaded micelle. The KB cell line is cultured for 0.5, 1, 3, and 24 hrs, in which the blue parts are shown by the DAPI staining at the cell core; the red is the fluorescence of the EPI; the green is the fluorescence of the Lyso-Traker, and the purple is the overlap of EPI and DAPI and the yellow is the overlap of Lyso-Traker and EPI. The amounts of EPI entering the nuclei and the lysosomes (the purple and the yellow images) increase with the increase in the incubation time.
Intracellular delivery is observed using the confocal microscope. 18 mm cover slip is immersed in 0.1N HCl solution for one day and washed to remove the impurities on the slide. After being rinsed by the ddH2O, the slide is wiped and then immersed in 75% alcohol. […]

[4] = drug release of EPI micelles by dialysis in PBS buffer; type: physicochemical; settings: pH = 7.4, 6.4 and 5.6
Method: […] The outside PBS buffer is collected at different time points and then the fresh 30 mL PBS buffer is replaced. The drug concentration is measured and calculated based on a calibration curve generated in PBS buffer with the same pH value.

For Nc1nc2ncc(CNc3ccc(C(=O)N[C@@H](CCC(=O)O)C(=O)O)cc3)nc2c(=O)[nH]1 [folic acid], the Kd [1] is listed as 0.1 nM.

For COc1cccc2c1C(=O)c1c(O)c3c(c(O)c1C2=O)C[C@@](O)(C(=O)CO)C[C@@H]3O[C@H]1C[C@H](N)[C@@H](O)[C@H](C)O1 [EPI, Epirubicin], the IC50 ([2]; incubating time 24 hr) was 0.35 µg/mL (≈ 0.644 µM), the IC50 ([2]; incubating time 48 hr) was 0.2 µg/mL (≈ 0.368 µM) and the “intracellular location of EPI fluorescence” value [3] was “observed in the cell nuclei rather than in cytoplasm”. For the same molecule, the “drug release rate (in words)” value [4] was “quickly released in a short time”.
